Data published in publication PMC3328449, “Inhibition of Diacylglycerol–Sensitive TRPC Channels by Synthetic and Natural Steroids” (PLoS ONE, 2012).

Columns and labels:
A7r5 cells = assay: Fura-2 measurement of AVP-induced Ca2+ release in A7r5 cells; format: cell-based; details: 10 µM, 5 min pre-incubation, calcium-free solution, 100 nM AVP
Procedure: A7r5 cells (ATCC, Rockville, USA) were maintained in DMEM (with glutaMAX I, 4.5 g/l glucose and […] sodium pyruvate), supplemented with 10% (v/v) fetal bovine serum (PAA, Pasching, Austria). Cells grown on poly-L-lysine-coated 24-mm glass coverslips were loaded in cell culture medium supplemented with 2 µM fura-2 AM (30 min, 37°C) and subsequently allowed to de-esterify in standard extracellular solution (15 min, 37°C). Changes in [Ca^2+]i were measured using a monochromator-based imaging system (T.I.L.L. Photonics, Gräfelfing, Germany) mounted on an inverted Axiovert 200 microscope (Zeiss, Göttingen, Germany). Fluorescence was excited alternating at 340 nm and 380 nm, long-pass filtered at 440 nm and captured at 2 s intervals. The 340/380 nm excitation ratio of selected cell areas was calculated with T.I.L.L. vision 4.0 software (T.I.L.L. Photonics) after correction for background fluorescence.

mTRPC4ß = target: T1, mTRPC4ß (Mus musculus, UniProt Q9QUQ5); assay: Trypsin-induced Ca2+ entry, fluo-4 fluorometric imaging plate reader, TRPC4 HEK-FITR cells; format: cell-based
T1 construct: expressed in transfected cells
T1 sequence (Q9QUQ5 1-890 isoform Q9QUQ5-2): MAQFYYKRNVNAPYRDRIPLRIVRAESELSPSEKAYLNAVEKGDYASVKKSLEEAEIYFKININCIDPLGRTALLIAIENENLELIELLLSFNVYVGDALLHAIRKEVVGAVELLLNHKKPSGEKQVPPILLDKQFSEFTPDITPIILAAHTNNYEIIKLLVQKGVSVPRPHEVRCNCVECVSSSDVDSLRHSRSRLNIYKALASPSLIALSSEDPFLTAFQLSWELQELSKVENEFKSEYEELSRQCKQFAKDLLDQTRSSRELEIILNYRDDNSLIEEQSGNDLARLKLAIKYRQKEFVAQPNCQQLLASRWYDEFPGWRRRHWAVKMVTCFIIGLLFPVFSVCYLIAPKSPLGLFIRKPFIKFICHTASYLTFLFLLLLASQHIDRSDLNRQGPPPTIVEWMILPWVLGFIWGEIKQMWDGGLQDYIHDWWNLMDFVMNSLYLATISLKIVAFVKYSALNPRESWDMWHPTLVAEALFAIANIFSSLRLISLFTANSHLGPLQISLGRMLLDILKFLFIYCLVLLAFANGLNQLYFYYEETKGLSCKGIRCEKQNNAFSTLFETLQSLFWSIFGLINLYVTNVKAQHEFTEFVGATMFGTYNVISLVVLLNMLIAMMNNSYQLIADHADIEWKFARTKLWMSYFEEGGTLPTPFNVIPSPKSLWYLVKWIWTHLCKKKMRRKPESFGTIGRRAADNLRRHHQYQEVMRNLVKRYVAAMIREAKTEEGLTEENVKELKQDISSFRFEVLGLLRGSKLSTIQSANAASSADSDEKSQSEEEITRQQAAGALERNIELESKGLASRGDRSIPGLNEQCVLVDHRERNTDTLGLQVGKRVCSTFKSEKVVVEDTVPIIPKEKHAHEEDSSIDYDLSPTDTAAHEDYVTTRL
Procedure: Cells were grown at 37°C in a humidified atmosphere (5% or 7% CO2) under standard cell culture conditions. Stable human embryonic kidney (HEK) cell lines expressing recombinant mTRPC4ß (GenBank accession number AAC05178); mTRPC5 (GenBank accession number NM_009428) or hTRPC6 (GenBank accession number AF080394) under the control of a tetracycline-inducible promoter were generated using the Flp-In T-Rex (FITR) system (Invitrogen, Karlsruhe, Germany). […]
Cells grown to an almost confluent monolayer on black poly-D-lysine coated 96-well plates (Greiner, Frickenhausen, Germany) were washed with standard extracellular solution (140 mM NaCl, 1 mM MgCl2, 5.4 mM KCl, 2 mM CaCl2, 10 mM HEPES, 10 mM glucose, pH 7.35) and stained (30 min, room temperature) with dye solution (2 µM fluo-4 AM, 0.02% pluronic F127, 0.1% bovine serum albumin in standard extracellular solution). […] Fluo-4 fluorescence was excited at 488 nm with an argon laser and measured using a fluorometric imaging plate reader (Molecular Devices, Sunnyvale, USA). […]
TRPC4- and TRPC5-mediated Ca^2+ influx was stimulated by application of trypsin that activates endogenous Gq-coupled protease activated receptors in HEK cells. […] Compound effects were then calculated from the area under the curve and normalized to the Ca^2+ influx into trypsin-stimulated, non-compound-treated cells. […]

## C#C[C@]1(OC(C)=O)CC[C@H]2[C@@H]3CCC4=CC(=NO)CC[C@@H]4[C@H]3CC[C@@]21CC (mixture of isomers) [norgestimate]
A7r5 cells
  Sensitivity of AVP-induced Ca2+ release: not sensitive

## CC(=O)[C@H]1CC[C@H]2[C@@H]3CCC4=CC(=O)CC[C@]4(C)[C@H]3CC[C@]12C [progesterone]
mTRPC4ß; TRPC4 HEK-FITR cells, fluo-4, 200 nM trypsin, read-out: IC50, inhibition of trypsin-induced Ca2+ entry via TRPC4
  IC50: 6.2 µM
mTRPC4ß; fit to Hill model
  Hill slope n, inhibition of TRPC4-mediated Ca2+ entry: 1.15
